In ChEMBL document CHEMBL3862025, “Novel substituted hydrazono indolo[2,1-b]quinazoline-6,12-dione analogues as cytostatic agents: Synthesis, crystal structure, biological evaluation and molecular docking studies” (Bioorg Med Chem Lett, 2016):
≈ marks a conversion by molar mass, not a printed value.

How the values were obtained:
[1] = Cytotoxicity against human MCF7 cells assessed as inhibition of cell viability after 48 hrs by MTT assay; format: functional, cell-based; settings: MCF7, 48 h
[2] = Cytotoxicity against human A549 cells assessed as inhibition of cell viability after 48 hrs by MTT assay; format: functional, cell-based; settings: A549, 48 h
[3] = Cytotoxicity against human HeLa cells assessed as inhibition of cell viability after 48 hrs by MTT assay; format: functional, cell-based
[4] = test system: Staphylococcus aureus; assay: Antibacterial activity against Staphylococcus aureus after 24 hrs by broth dilution method; format: functional
[5] = test system: Bacillus subtilis; assay: Antibacterial activity against Bacillus subtilis after 24 hrs by broth dilution method; format: functional
[6] = test system: Klebsiella pneumoniae; assay: Antibacterial activity against Klebsiella pneumoniae after 24 hrs by broth dilution method; format: functional
[7] = test system: Escherichia coli; assay: Antibacterial activity against Escherichia coli after 24 hrs by broth dilution method; format: functional
[8] = test system: Aspergillus niger; assay: Antifungal activity against Aspergillus niger by agar streak dilution method; format: functional
[9] = Antifungal activity against Penicillium notatum by agar streak dilution method; format: functional; settings: Penicillium chrysogenum
[10] = Cytotoxicity against HEK293 cells assessed as inhibition of cell viability after 48 hrs by MTT assay; format: toxicity, cell-based; settings: human

Row | SMILES | MIC [4] [µg/mL] | MIC [5] [µg/mL] | MIC [6] [µg/mL] | MIC [7] [µg/mL] | MIC [8] [µg/mL] | MIC [9] [µg/mL] | IC50 [1] [µM] | IC50 [2] [µM] | IC50 [3] [µM] | IC50 at 48 h [10] [µM]
1 | COc1ccc2c(c1)/C(=N/N=C1/C=C(O)CCC1)c1nc3ccccc3c(=O)n1-2 | 3.12 (≈ 8.09 µM) | 6.25 (≈ 16.2 µM) | 6.25 (≈ 16.2 µM) | 12.5 (≈ 32.3 µM) | 100 (≈ 259 µM) | 12.5 (≈ 32.3 µM) | 32.7 | 36 | 32.1 | 
2 | O=c1c2ccccc2nc2n1-c1ccc(Br)cc1/C2=N/N=C1/C=C(O)CCC1 | 6.25 (≈ 14.4 µM) | 3.12 (≈ 7.18 µM) | 6.25 (≈ 14.4 µM) | 12.5 (≈ 28.7 µM) | 6.25 (≈ 14.4 µM) | 6.25 (≈ 14.4 µM) | 43.9 | 41.7 | 35.8 | 
3 | C/C(O)=C/C(C)=N/N=C1/c2ccccc2-n2c1nc1ccccc1c2=O | 25 (≈ 72.6 µM) | 25 (≈ 72.6 µM) | 12.5 (≈ 36.3 µM) | 50 (≈ 145 µM) | > 100 | > 100 | 42.1 | 43.9 | 44.8 | 
4 | N/N=C1/c2cc(Br)ccc2-n2c1nc1ccccc1c2=O | > 100 | 50 (≈ 147 µM) | 25 (≈ 73.3 µM) | > 100 | 50 (≈ 147 µM) | 50 (≈ 147 µM) | 23.2 | 23.1 | 22.1 | 
5 | COc1ccc2c(c1)/C(=N/N=C(C)C=C(O)c1ccccc1)c1nc3ccccc3c(=O)n1-2 | > 100 | > 100 | > 100 | > 100 | 25 (≈ 57.3 µM) | 50 (≈ 115 µM) | 31.1 | 29.3 | 33.7 | 
6 | CN[C@@H]1[C@H](O[C@H]2[C@H](O[C@H]3[C@H](O)[C@@H](O)[C@H](N=C(N)N)[C@@H](O)[C@@H]3N=C(N)N)O[C@@H](C)[C@]2(O)C=O)O[C@@H](CO)[C@H](O)[C@H]1O [STREPTOMYCIN] | 6.25 (≈ 10.7 µM) | 3.12 (≈ 5.37 µM) | 1.56 (≈ 2.69 µM) | 6.25 (≈ 10.7 µM) |  |  |  |  |  | 
7 | N/N=C1/c2ccccc2-n2c1nc1ccccc1c2=O | 50 (≈ 191 µM) | > 100 | 50 (≈ 191 µM) | > 100 | 50 (≈ 191 µM) | > 100 | 25.2 | 28.7 | 25.6 | 
8 | COc1ccc2c(c1)/C(=N/N=C(C)C=C(C)O)c1nc3ccccc3c(=O)n1-2 | 12.5 (≈ 33.4 µM) | 50 (≈ 134 µM) | 50 (≈ 134 µM) | 50 (≈ 134 µM) | > 100 | 100 (≈ 267 µM) | 47.9 | 46.7 | 49.1 | 

Now from value to compound, other results behind:

Row | MIC [4] [µg/mL] | MIC [5] [µg/mL] | MIC [6] [µg/mL] | MIC [7] [µg/mL] | MIC [8] [µg/mL] | MIC [9] [µg/mL] | SMILES | IC50 [1] [µM] | IC50 [2] [µM] | IC50 [3] [µM] | IC50 at 48 h [10] [µM]
9 | 1.56 (≈ 3.33 µM) | 1.56 (≈ 3.33 µM) | 3.12 (≈ 6.66 µM) | 3.12 (≈ 6.66 µM) | 3.12 (≈ 6.66 µM) | 6.25 (≈ 13.3 µM) | O=c1c2ccccc2nc2n1-c1ccc(Br)cc1/C2=N/N=C1/C=C(O)c2ccccc21 | 15.9 | 20.4 | 17 | 55.2
10 | > 100 | > 100 | > 100 | > 100 | 100 (≈ 241 µM) | > 100 | COc1ccc2c(c1)/C(=N/N=C1/C=C(O)CC(C)(C)C1)c1nc3ccccc3c(=O)n1-2 | 68.7 | 67.8 | 56.9 | 
11 | > 100 | > 100 | > 100 | > 100 | 25 (≈ 51.5 µM) | 25 (≈ 51.5 µM) | CC(C=C(O)c1ccccc1)=N/N=C1/c2cc(Br)ccc2-n2c1nc1ccccc1c2=O | 7.14 | 9.18 | 10.6 | 46.1
12 | > 100 | > 100 | > 100 | > 100 | 25 (≈ 61.5 µM) | 25 (≈ 61.5 µM) | CC(C=C(O)c1ccccc1)=N/N=C1/c2ccccc2-n2c1nc1ccccc1c2=O | 26.2 | 17.6 | 25.2 | 68.1
